This passage reports T/C results from PubChem BioAssay AID200 (DTP/NCI, 2004).

Several values for one entry are separate records, joined by “and”; a condition that tells them apart may be missing. Equal entries are not always repeated. Toxic doses and inconclusive results are not listed.

This test relates to B6C3F1 mice, B16 melanoma ip, median survival T/C. As to the kind of experiment: NCI In Vivo Anticancer Drug Screen. Data for tumor model B16 Melanoma (intraperitoneal) in B6C3F1 mice. The note with it: endpoint: median survival time, higher = longer survival. The method, boiled down: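 Transplantable tumor in mice; treated vs vehicle control groups; survival or tumor size measured; value = T/C ratio.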

Where [1] appears, read: dose: 100.0 mg/kg/injection, schedule: Q01DX009 (ip), vehicle: saline with Tween-80.
[2] abbreviates: dose: 200.0 mg/kg/injection, schedule: Q01DX009 (ip), vehicle: saline with Tween-80.
Where [3] appears, read: dose: 6.25 mg/kg/injection, schedule: Q01DX009 (ip), vehicle: saline.
[4] abbreviates: dose: 12.5 mg/kg/injection, schedule: Q01DX009 (ip), vehicle: saline.
Where [5] appears, read: dose: 25.0 mg/kg/injection, schedule: Q01DX009 (ip), vehicle: saline.
The mark [6] stands for this setting: dose: 50.0 mg/kg/injection, schedule: Q01DX009 (ip), vehicle: saline.

Consider `O=C1c2c(O)ccc(O)c2C(=O)c2c(NCCNCCO)ccc(NCCNCCO)c21`, for which the T/C reads like this: (dose: 0.12 mg/kg/injection, schedule: Q01DX009 (ip), vehicle: water) 111 % of control; (dose: 0.12 mg/kg/injection, schedule: Q03HX024 (ip), vehicle: acid diluted with saline) 287 % of control; (dose: 0.13 mg/kg/injection, schedule: Q01DX009 (ip), vehicle: water) 184 % of control; (dose: 0.25 mg/kg/injection, schedule: Q01DX005 (ip), vehicle: saline) 183 % of control; (dose: 0.25 mg/kg/injection, schedule: Q01DX005 (iv), vehicle: acid diluted with saline) 102 % of control; (dose: 0.25 mg/kg/injection, schedule: Q01DX005 (iv), vehicle: saline) 88 % of control. Moreover, the T/C is, setting by setting: (dose: 0.25 mg/kg/injection, schedule: Q01DX009 (ip), vehicle: acid diluted with saline) 172 % of control; (dose: 0.25 mg/kg/injection, schedule: Q01DX009 (ip), vehicle: water) 212 % of control [middle of 4 runs]; (dose: 0.25 mg/kg/injection, schedule: Q01DX009 (sc), vehicle: acid diluted with saline) 101 % of control; (dose: 0.25 mg/kg/injection, schedule: Q03HX008 (ip), vehicle: acid diluted with saline) 206 % of control; (dose: 0.25 mg/kg/injection, schedule: Q03HX024 (ip), vehicle: acid diluted with saline) 292 % of control; (dose: 0.31 mg/kg/injection, schedule: Q01DX009 (ip), vehicle: water) 168 % of control. Also, the T/C reads like this: (dose: 0.5 mg/kg/injection, schedule: Q01DX005 (ip), vehicle: saline) 206 % of control; (dose: 0.5 mg/kg/injection, schedule: Q01DX005 (iv), vehicle: acid diluted with saline) 99 % of control; (dose: 0.5 mg/kg/injection, schedule: Q01DX005 (iv), vehicle: saline) 93 % of control; (dose: 0.5 mg/kg/injection, schedule: Q01DX009 (ip), vehicle: acid diluted with saline) 185 % of control; (dose: 0.5 mg/kg/injection, schedule: Q01DX009 (ip), vehicle: other) 222 % of control; (dose: 0.5 mg/kg/injection, schedule: Q01DX009 (ip), vehicle: water) 216 % of control and 326 % of control and 337 % of control. The T/C by setting is: (dose: 0.5 mg/kg/injection, schedule: Q01DX009 (sc), vehicle: acid diluted with saline) 121 % of control; (dose: 0.5 mg/kg/injection, schedule: Q03HX008 (ip), vehicle: acid diluted with saline) 219 % of control; (dose: 0.62 mg/kg/injection, schedule: Q01DX009 (ip), vehicle: water) 198 % of control and 234 % of control; (dose: 1.0 mg/kg/injection, schedule: Q01DX005 (ip), vehicle: saline) 275 % of control; (dose: 1.0 mg/kg/injection, schedule: Q01DX005 (iv), vehicle: acid diluted with saline) 99 % of control; (dose: 1.0 mg/kg/injection, schedule: Q01DX005 (iv), vehicle: saline) 105 % of control. Besides, the T/C is, setting by setting: (dose: 1.0 mg/kg/injection, schedule: Q01DX009 (ip), vehicle: acid diluted with saline) 229 % of control; (dose: 1.0 mg/kg/injection, schedule: Q01DX009 (ip), vehicle: other) 220 % of control; (dose: 1.0 mg/kg/injection, schedule: Q01DX009 (ip), vehicle: water) 326 % of control [middle of 4 runs]; (dose: 1.0 mg/kg/injection, schedule: Q01DX009 (oral), vehicle: acid diluted with saline) 103 % of control; (dose: 1.0 mg/kg/injection, schedule: Q03HX008 (ip), vehicle: acid diluted with saline) 284 % of control; (dose: 1.0 mg/kg/injection, schedule: Q04DX003 (ip), vehicle: acid diluted with saline) 200 % of control. The T/C (dose: 1.25 mg/kg/injection, schedule: Q01DX009 (ip), vehicle: water) was 238 % of control and 252 % of control; the T/C (dose: 2.0 mg/kg/injection, schedule: Q01DX005 (ip), vehicle: saline) was 275 % of control; the T/C (dose: 2.0 mg/kg/injection, schedule: Q01DX005 (iv), vehicle: acid diluted with saline) is 121 % of control; the T/C (dose: 2.0 mg/kg/injection, schedule: Q01DX005 (iv), vehicle: saline) was 100 % of control; the T/C (dose: 2.0 mg/kg/injection, schedule: Q01DX009 (ip), vehicle: acid diluted with saline) is 151 % of control; the T/C (dose: 2.0 mg/kg/injection, schedule: Q01DX009 (ip), vehicle: other) is 105 % of control. Moreover, the T/C is, setting by setting: (dose: 2.0 mg/kg/injection, schedule: Q01DX009 (ip), vehicle: water) 162 % of control and 187 % of control; (dose: 2.0 mg/kg/injection, schedule: Q01DX009 (oral), vehicle: acid diluted with saline) 102 % of control; (dose: 2.0 mg/kg/injection, schedule: Q03HX008 (ip), vehicle: acid diluted with saline) 292 % of control; (dose: 2.0 mg/kg/injection, schedule: Q04DX003 (ip), vehicle: acid diluted with saline) 224 % of control; (dose: 4.0 mg/kg/injection, schedule: Q01DX001 (ip), vehicle: acid diluted with saline) 200 % of control and 254 % of control; (dose: 4.0 mg/kg/injection, schedule: Q01DX001 (iv), vehicle: acid diluted with saline) 108 % of control. Moreover, the T/C reads like this: (dose: 4.0 mg/kg/injection, schedule: Q01DX009 (ip), vehicle: water) 262 % of control; (dose: 4.0 mg/kg/injection, schedule: Q01DX009 (oral), vehicle: acid diluted with saline) 96 % of control; (dose: 4.0 mg/kg/injection, schedule: Q04DX003 (ip), vehicle: acid diluted with saline) 278 % of control; (dose: 8.0 mg/kg/injection, schedule: Q01DX001 (ip), vehicle: acid diluted with saline) 219 % of control and 260 % of control; (dose: 8.0 mg/kg/injection, schedule: Q01DX001 (iv), vehicle: acid diluted with saline) 104 % of control; (dose: 8.0 mg/kg/injection, schedule: Q04DX003 (ip), vehicle: acid diluted with saline) 92 % of control. For the same molecule, the T/C is, setting by setting: (dose: 9.0 mg/kg/injection, schedule: Q01DX001 (ip), vehicle: acid diluted with saline) 245 % of control and 98 % of control; (dose: 16.0 mg/kg/injection, schedule: Q01DX001 (ip), vehicle: acid diluted with saline) 220 % of control and 292 % of control; (dose: 18.0 mg/kg/injection, schedule: Q01DX001 (ip), vehicle: acid diluted with saline) 196 % of control; (dose: 32.0 mg/kg/injection, schedule: Q01DX001 (ip), vehicle: acid diluted with saline) 234 % of control.

Regarding `CN(C)CCC(O)c1c[nH]c2ccccc12` (stereo unspecified), the T/C is 98 % of control under setting [1]; 94 % of control under setting [2]; 94 % of control (dose: 400.0 mg/kg/injection, schedule: Q01DX009 (ip), vehicle: saline with Tween-80).

On to `O=C(/C=C(\Cl)C(=O)NO)NO`, for which the T/C under setting [3] was 100 % of control and 105 % of control; the T/C under setting [4] is 91 % of control and 100 % of control; the T/C under setting [5] was 97 % of control and 104 % of control; the T/C under setting [6] was 108 % of control; the T/C (dose: 100.0 mg/kg/injection, schedule: Q01DX009 (ip), vehicle: saline) is 91 % of control.

Regarding `CC1=C2C(=CO[C@H](C)[C@H]2C)C(=O)C(C(=O)O)=C1O`, the T/C was 105 % of control (dose: 6.25 mg/kg/injection, schedule: Q01DX009 (ip), vehicle: Klucel (hydroxypropylcellulose) (HPC)); 108 % of control under setting [3]; 102 % of control (dose: 12.5 mg/kg/injection, schedule: Q01DX009 (ip), vehicle: Klucel (hydroxypropylcellulose) (HPC)); 100 % of control under setting [4]; 100 % of control under setting [5]; 98 % of control under setting [6].

Consider `O=C(O)/C=C/C(=O)N1Cc2cc3ccccc3nc2C1`, for which the T/C is 110 % of control (dose: 12.5 mg/kg/injection, schedule: Q01DX009 (ip), vehicle: saline with Tween-80); 99 % of control (dose: 25.0 mg/kg/injection, schedule: Q01DX009 (ip), vehicle: saline with Tween-80); 98 % of control (dose: 50.0 mg/kg/injection, schedule: Q01DX009 (ip), vehicle: saline with Tween-80); 94 % of control under setting [1]; 95 % of control under setting [2].
